For series [1], the system named is T47D human breast carcinoma cells. The series can be described thus: Crystal violet colony assay. Type of series: cell-based. The method, then:
(§1) The T47D human breast carcinoma cell line was grown in RPMI-1640/1× Glutamax/1× Insulin/10% fetal bovine serum and was plated at 10,000 cells/well in Corning 6-well tissue culture treated plates. Cells were incubated at 37° C. for 24 hours prior to addition of treatment. […] Plates were collected at week 2 and 3, at week 3, 2 plates with only palbociclib were switched to combination treatment. The remaining plates were collected at weeks 5 and 8. Collection was performed by washing wells with PBS before incubating 5 minutes with 0.1% crystal violet/20% methanol. Dye was removed and wells washed 4 times with PBS before being scanned at 1200 dpi. Image J was used to count the % area and colony size for each well (FIG. 8F-I). GraphPad Prism was used for analysis. Cells treated with DMSO control retained large colonies that inhabited the majority of the well surface area from week 3 beyond (FIG. 8F).
as §1, with “6 well tissue culture treated plates. The BT474 human breast carcinoma cell line was grown in DMEM/1× Glutamax/1× Insulin/10% fetal bovine serum and was plated at 25,000 cells/well in Corning 6 well” for “6-well”, “CDK4/6i” for “palbociclib”, “well. Graph pad” for “well (FIG. 8F-I). GraphPad Prism”, “analysis.” for “analysis. Cells treated with DMSO control retained large colonies that inhabited the majority of the well surface area from week 3 beyond (FIG. 8F).”
The T47D human breast carcinoma cell line was grown in RPMI-1640/1× Glutamax/1× Insulin/10% fetal bovine serum and was plated at 10,000 cells/well in Corning 6 well tissue culture treated plates. Cells were incubated at 37° C. for 24 hours prior to addition of treatment. […] Plates were collected at weeks 2 and 3. Collection was performed by washing wells with PBS before incubating 5 minutes with 0.1% crystal violet/20% methanol. Dye was removed and wells washed 4 times with PBS before being scanned at 1200 dpi. Image J was used to count the percent area and colony size for each well and Graph pad was used for analysis.

The next series addresses CDK2/Cyclin E (CDK2/E) (Homo sapiens, UniProt P24941). The series can be described thus: Caliper microfluidic kinase assay (Nanosyn). Type of series: biochemical.
Series [2] in a line: Bidirectional permeability (A-B, B-A Papp). It counts as in vitro ADME.
In series [3] the test system is Hs68 normal foreskin fibroblast cells. As to the kind of experiment: Cell cycle by EdU flow cytometry, normal fibroblasts. Type of series: cell-based, human. The following applies: 300 nM, 24 hours, alone or in combination with cisplatin. Here is the method: The Hs68 normal foreskin fibroblast cell line was grown in DMEM-high glucose/1× Glutamax/10% fetal bovine serum and was plated at 30,000 cells/well in Corning 6 well tissue culture treated plates. Cells were incubated at 37° C. for 24 hours prior to addition of the first treatment. […] Cells were treated to 24 hours post-initial treatment, with 10 μM EdU added at hour 23. Cells were collected and fixed in 1% paraformaldehyde. Cells were incubated with pacific blue azide dye as described by Thermo Scientific. Cells were then incubated with antibody against γ-H2AX at a ratio of 1:50 before incubation with FarRed dye and RNase. Cells were analyzed on a BD Celesta and data compiled using FloJo and GraphPad. Cell cycle profiles were evaluated following treatment via Flow Cytometry using FlowJo (v10.0) software.
In general terms: A flow cytometer gives signals particle by particle.

For another series, the system named is OVCAR-3 cells. The series can be described thus: CellTiter Glo cell proliferation assay. It counts as cell-based, human. The following applies: six days. Here is the method: Plates were returned to the incubator for six additional days. On day six post dosing, plates were removed and treated with CellTiter Glo reagent following manufacturer's specifications. Plates were incubated 45 minutes at room temperature and run on Biotek luminometer with 1 sec/well detection. Results were converted to Microsoft Excel and transferred to Graphpad Prism for analysis. […] These cell types are distinguished by either gained of cyclin E1 expression or activation (Kuramochi) or intrinsic amplification of cyclin E1 (OVCAR-3, COV318).
In a similar manner, OVCAR-3 cells were grown in RPMI-1640, 1× Glutamax, 10% FBS and 1×ITS at 37° C., 5% CO2. Cells were plated at 500 cells per well in white wall/clear bottom plates and incubated overnight. […] Plates returned to incubator for six additional days. On day six post dosing, plates were removed and treated with CellTiter Glo reagent following manufacturer's specifications. Plates were incubated 45 minutes at room temperature and run on Biotek luminometer with 1 sec/well detection. Results were converted to Microsoft Excel and transferred to GraphPad Prism for analysis.

A further series has as its target MATE2-K (Homo sapiens, UniProt Q86VL8). The series can be described thus: SLC transporter inhibition in HEK293 cells.
The test system of series [4] is Palbo-S MCF7 parental cells. The series can be described thus: Cell cycle by EdU flow cytometry. Type of series: cell-based, human. The following applies: 10 nM to 10 μM, 24 hours. The method, then:
(§2) The Palbo-sensitive (Palbo-S) MCF7 parental and Palbo-R daughter cells (MCF7 PDRC15-1) human […] carcinoma cell line was grown in MEM/1× Glutamax/1× Insulin/10% fetal bovine serum with the PDR cells grown in the presence of 1 μM palbociclib. Cells were plated at 100,000 cells/well in Corning 6 cm tissue culture treated plates. […] Cells were treated for 24 hours and 10 μM EdU was added 1 hour prior to collection. Cells were collected and fixed in 1% paraformaldehyde. Cells were incubated with Alexa488 azide dye as described by Thermo Scientific. Cells were then incubated with FarRed dye and RNase. Cells were analyzed on a BD Celesta and data compiled using FloJo and GraphPad. […] The resistant Palbo-R MCF7 cells have a much lower percent of cells in S phase in general.

In series [5] the test system is Palbo-R MCF7 PDRC15-1 cells. The series can be described thus: Cell cycle by EdU flow cytometry. It counts as cell-based, human. The following applies: with 1 μM palbociclib, 24 hours. Here is the method:
as §2

Where “and” joins values, the source holds several entries; their conditions need not be identical. Identical values can stand only once. Like-named read-outs stand apart in the source and are kept apart here.

Usually Papp A→B stands for how fast a substance crosses the layer from the apical side. The low end stands for slow passage, the high end for fast passage. A word on the Papp B→A: it is the apparent permeability from the basolateral to the apical side of a cell layer.

Sequence of MATE2-K (Q86VL8 1-566 isoform Q86VL8-3): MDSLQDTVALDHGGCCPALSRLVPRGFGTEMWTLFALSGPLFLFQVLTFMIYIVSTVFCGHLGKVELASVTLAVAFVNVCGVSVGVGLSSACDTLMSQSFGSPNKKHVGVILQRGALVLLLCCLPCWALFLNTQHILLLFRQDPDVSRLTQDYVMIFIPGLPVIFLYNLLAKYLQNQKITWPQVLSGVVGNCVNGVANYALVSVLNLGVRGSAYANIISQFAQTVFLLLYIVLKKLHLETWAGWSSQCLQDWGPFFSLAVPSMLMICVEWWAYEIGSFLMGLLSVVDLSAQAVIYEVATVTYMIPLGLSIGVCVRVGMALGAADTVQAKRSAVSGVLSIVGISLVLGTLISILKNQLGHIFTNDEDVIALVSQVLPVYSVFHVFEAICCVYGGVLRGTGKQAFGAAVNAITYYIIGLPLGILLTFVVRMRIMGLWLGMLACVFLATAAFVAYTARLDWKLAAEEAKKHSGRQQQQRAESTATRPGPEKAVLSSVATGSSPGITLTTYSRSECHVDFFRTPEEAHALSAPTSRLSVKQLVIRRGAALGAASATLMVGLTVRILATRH
Experimental for CDK2/Cyclin E (CDK2/E): Kinase phosphorylation assays were performed using a caliper technology microfluidics platform (Caliper Assay Platform). With this system, the target enzyme is incubated with fluorescently labeled substrate and test compounds in a standardized reaction mixture in 384 well plates. Upon termination of the reaction, samples are introduced onto microfluidic chips. The samples migrate through channels in the chips and product and substrate are separated based on the difference in their charge and mass (electrophoretic mobility shift). Enzyme activity is measured by direct comparison of the fluorescence in the product and substrate peaks.
Protein kinase activity was measured against multiple CDKs and their binding partners: CDK1/Cyclin B (CDK1/B), CDK2/Cyclin A (CDK2/A), and CDK2/Cyclin E (CDK2/E), CDK3/Cyclin E (CDK3/E), CDK4/Cyclin D1 (CDK4/D1), CDK6/Cyclin D3 (CDK6/D3), CDK5/p35 (CDK5/p35), CDK7/Cyclin H (CDK7/H), CDK9/Cyclin T1 (CDK9/T). Test compounds were diluted in 100% DMSO using 3-fold dilution steps. […] Compounds were tested in a single well for each dilution, and the final concentration of DMSO in all assays was kept at 1%.

Regarding `NS(=O)(=O)c1ccc(Nc2ncc3cc4n(c3n2)C2(CCCCC2)C(=O)NN4)cc1` [Compound I], the “growth with combination of fulvestrant and Compound I” value in series [1] (100 nM Compound I + 1 nM Fulvestrant, weeks 2 and 3) is “reduced growth of cells”. Also, in series [1] (300 nM each, 8 weeks), the “growth with both Compound I and a CDK4/6i” value was “no noticeable growth after 8 weeks”. Further, the “time to CDK4/6i resistance” value in series [1] (300 nM with palbociclib or abemaciclib, up to 8 weeks) was “prolonged the time to CDK4/6i resistance”. Moreover, the “colony size and percent plate area” value in series [1] (300 nM, weeks 2-8) is recorded as “substantially reduced colony size”. Further, the IC50 is 0.0006 µM and 0.00056 µM at CDK2/Cyclin E (CDK2/E) (12-point dose-response, 1 μM to 0.0056 nM, read-out: IC50 against CDK2/E); 0.049 µM with OVCAR-3 cells (Homo sapiens, OVCAR-3, 144 h); 0.74 µM against MATE2-K; 0.74 µM on MATE2-K (human). For the same compound, the “inhibition compared with other CDK/cyclin combinations” value at CDK2/Cyclin E (CDK2/E) (FIG. 1A panel) was “greatest inhibition of CDK2/E and CDK2/A”. In addition, in series [2], the permeability entry is “moderate permeability”. This compound also had a Papp A→B in series [2] (not told) of 3.28 to 6.67 ×10⁻⁶ cm/s. Moreover, in series [2] (not told), the Papp B→A lay in the range of 42 to 68.3 ×10⁻⁶ cm/s. The cell cycle changes entry in series [3] is given as “Few cell cycle changes were observed”. Also, in the series with OVCAR-3 cells (CCNE1 amplified), the “cell viability compared with palbociclib” value was “potently decreases cell viability”. For the same compound, at MATE2-K (MATE2-K, HEK293 cells), the “Maximum Percent inhibition” value stood at 69%. The cell cycle sensitivity entry in series [4] was “not sensitive to Compound I”. Also, in series [5], the cell cycle arrest result is “arrested during the G1 phase at 30, 100, 300 nM”.

The record behind these values is US20250199015A1, “CYCLIN-DEPENDENT KINASE 2 INHIBITORS FOR MEDICAL TREATMENT” (INCYCLIX BIO, LLC, priority 2022, published 2025).
